The source made the active and inactive calls.
Experiments:
[1] = target: T1, Ubiquitin-conjugating enzyme E2 N (Homo sapiens, UniProt P61088); type: functional
T1 sequence (P61088 whole entry): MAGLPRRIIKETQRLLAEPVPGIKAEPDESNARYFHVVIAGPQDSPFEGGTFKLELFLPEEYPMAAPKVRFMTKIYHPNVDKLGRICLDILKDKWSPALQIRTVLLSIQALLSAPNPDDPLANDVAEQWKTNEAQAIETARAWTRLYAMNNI

[2] = target: T1, Ubiquitin-conjugating enzyme E2 N; type: functional; remark: listed apart in the source
[3] = target: T2, Bcl-2-related protein A1 (Mus musculus, UniProt Q07440); type: functional;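 also: confirmatory dose–response counterscreen on Bfl-1, used to check hits from a UBC13 polyubiquitin inhibitor campaign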
T2 sequence (Q07440 whole entry): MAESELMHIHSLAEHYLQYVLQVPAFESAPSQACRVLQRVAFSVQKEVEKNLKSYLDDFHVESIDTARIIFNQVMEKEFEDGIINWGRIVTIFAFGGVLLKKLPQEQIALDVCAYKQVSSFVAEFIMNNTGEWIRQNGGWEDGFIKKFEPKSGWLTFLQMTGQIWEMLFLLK

[4] = antiviral protection against BTV-induced cell death – arbovirus, BSR cells, confirmation (AID 1250); type: functional;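 also: protection from viral cytopathic effect measured as cell viability by ATP luminescence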
[5] = growth inhibition of yeast DHODH-expressing 3D7 parasites – SYBR Green, dry powder samples, dose response (AID 1159570); type: functional, cell-based;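 also: parasite growth measured after 72 hours of compound exposure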
[6] = toxicity to human HepG2 hepatoma cells – cell-based, plate reader, dry powder samples, cytotoxicity control, dose response (AID 1159569); type: functional;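 also: inhibitor potency with signal falling toward the positive control level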
[7] = Dd2 malaria parasite growth inhibition potency – SYBR Green, dry powder samples, dose response (AID 1159566); type: functional, cell-based;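 also: potency for growth inhibition with lower SYBR green DNA signal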
[8] = P. falciparum Dd2 growth inhibitors, dose response, SYBR Green, cherry-picked samples (AID 1159567); type: functional, cell-based
[9] = growth inhibition of PfATP4-mutant resistant parasites – NITD609-resistant line, SYBR Green, dry powder, dose response (AID 1159571); type: functional, cell-based;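 also: parasites synchronized at ring stage by sorbitol before testing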
[10] = target: T3, SUMO-activating enzyme (Homo sapiens, UniProt Q9UBT2); assay: blockers of UBC9-mediated SUMO conjugation – biochemical, AlphaScreen, SUMOylation inhibitor project, confirmation (AID 2018); type: functional
[11] = target: T3, SUMO-activating enzyme; assay: blockers of SAE1/SAE2–UBC9 SUMO transfer – biochemical, HTRF, uHTS, primary screen (AID 2006); type: protein-complex assay
[12] = Luminescence Cell-Based Dose Response to Identify Activators of 5'UTR Stem-Loop Driven Prion Protein mRNA Translation in H4-C Neuroglioblastoma Cells. [Related pubchem assays: 1829 (Project Summary), 1814 (Primary HTS)]; type: functional
[13] = Luminescence Cell-Based Dose Response to Identify Activators of Luciferase Translation or Activity in H4-C Neuroglioblastoma Cells. [Related pubchem assays: 1829 (Project Summary), 1814 (Primary HTS)]; type: functional
[14] = Luminescence Cell-Based Dose Confirmation HTS to Identify Activators of 5'UTR Stem-Loop Driven Alpha-Synuclein mRNA Translation in H4 Neuroglioblastoma Cells. [Related pubchem assays: 1829 (Project Summary), 1814 (Primary HTS)]; type: functional
[15] = test system: H4; assay: Luminescence Cell-Based Dose Response HTS to Identify Activators of 5'UTR Stem-Loop Driven Prion Protein mRNA Translation in H4 Neuroglioblastoma Cells. [Related pubchem assays: 1829 (Project Summary), 1814 (Primary HTS)]; type: functional; conditions: Homo sapiens
[16] = Luminescence Cell-Based Dose Response HTS to Identify Activators of Luciferase Translation or Activity in H4 […] Cells. [Related pubchem assays: 1829 (Project Summary), 1814 (Primary HTS)]; type: functional
[17] = Luminescence Cell-Based Dose Confirmation to Identify Activators of 5'UTR Stem-Loop Driven Alpha-Synuclein mRNA Translation in H4 Neuroglioblastoma Cells. [Related pubchem assays: 1829 (Project Summary), 1814 (Primary HTS)]; type: functional
[18] = target: T2, Bcl-2-related protein A1; assay: small-molecule antagonists of Bfl-1/BH3 interaction – biochemical, TR-FRET, mouse Bfl-1, confirmation (AID 621);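 also: TR-FRET binding of GST-Bfl-1 to FITC-labelled Bid peptide via terbium antibody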
[19] = target: Glyceraldehyde-3-phosphate dehydrogenase (Homo sapiens, UniProt P04406)
[20] = target: T2, Bcl-2-related protein A1; assay: Bfl-1 binding inhibitors, SAR follow-up, biochemical, fluorescence polarization (AID 1070)
[21] = target: T4, Protein Tat (Human immunodeficiency virus type 1 group M subtype B (isolate HXB2)(HIV-1), UniProt P04608); type: functional;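 also: tat binding to TAR RNA read out by fluorescence polarization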
T4 sequence (P04608 whole entry): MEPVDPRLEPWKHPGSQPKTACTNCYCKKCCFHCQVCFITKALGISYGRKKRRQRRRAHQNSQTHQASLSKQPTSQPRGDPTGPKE

[22] = viability loss in THP-1 monocytes – THP-1 cells, cytotoxicity control for Vif-APOBEC3G degradation inhibitor project, dose response (AID 1117359); type: functional; conditions: THP-1
[23] = target: T5, Replicative DNA helicase DnaB (Mycobacterium tuberculosis, UniProt P9WMR3); assay: DnaB intein splicing inhibitors, dose response, biochemical, cell-free fluorescence (AID 449749); type: functional
T5 sequence (P9WMR3 whole entry): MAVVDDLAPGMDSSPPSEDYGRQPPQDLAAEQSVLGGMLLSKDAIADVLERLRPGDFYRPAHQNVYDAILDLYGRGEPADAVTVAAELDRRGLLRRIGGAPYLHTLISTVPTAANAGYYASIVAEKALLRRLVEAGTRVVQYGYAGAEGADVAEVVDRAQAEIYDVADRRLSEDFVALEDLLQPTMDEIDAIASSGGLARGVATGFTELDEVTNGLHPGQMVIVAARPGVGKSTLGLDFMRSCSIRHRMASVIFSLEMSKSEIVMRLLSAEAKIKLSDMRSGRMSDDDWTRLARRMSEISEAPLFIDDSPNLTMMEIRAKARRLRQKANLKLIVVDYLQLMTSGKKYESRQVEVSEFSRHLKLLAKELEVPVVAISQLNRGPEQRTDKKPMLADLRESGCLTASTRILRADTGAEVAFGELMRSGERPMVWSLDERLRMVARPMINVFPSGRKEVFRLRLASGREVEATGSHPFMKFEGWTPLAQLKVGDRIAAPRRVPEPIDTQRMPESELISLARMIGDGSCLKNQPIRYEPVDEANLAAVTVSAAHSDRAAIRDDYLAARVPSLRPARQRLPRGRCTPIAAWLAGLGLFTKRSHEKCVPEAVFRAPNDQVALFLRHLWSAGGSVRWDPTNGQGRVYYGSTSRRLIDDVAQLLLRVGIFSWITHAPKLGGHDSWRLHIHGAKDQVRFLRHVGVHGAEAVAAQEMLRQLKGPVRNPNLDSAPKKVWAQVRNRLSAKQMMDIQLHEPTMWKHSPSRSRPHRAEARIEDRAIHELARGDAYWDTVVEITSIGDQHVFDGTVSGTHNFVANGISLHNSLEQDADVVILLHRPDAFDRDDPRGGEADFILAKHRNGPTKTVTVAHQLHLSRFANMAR

[24] = target: T6, Heat shock factor protein 1 (Mus musculus, UniProt P38532); assay: enhancement of HSF1-driven luciferase signal – cell-based, NIH3T3, luminescence, dose retest, confirmation (AID 435004); type: functional;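 also: stress induced by proteasome inhibitor MG132 added 30 min after compound; luciferase reporter driven by HSF1 response element in NIH3T3 cells; actives raise luminescence as potentiators of the MG132 stress response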
T6 sequence (P38532 whole entry): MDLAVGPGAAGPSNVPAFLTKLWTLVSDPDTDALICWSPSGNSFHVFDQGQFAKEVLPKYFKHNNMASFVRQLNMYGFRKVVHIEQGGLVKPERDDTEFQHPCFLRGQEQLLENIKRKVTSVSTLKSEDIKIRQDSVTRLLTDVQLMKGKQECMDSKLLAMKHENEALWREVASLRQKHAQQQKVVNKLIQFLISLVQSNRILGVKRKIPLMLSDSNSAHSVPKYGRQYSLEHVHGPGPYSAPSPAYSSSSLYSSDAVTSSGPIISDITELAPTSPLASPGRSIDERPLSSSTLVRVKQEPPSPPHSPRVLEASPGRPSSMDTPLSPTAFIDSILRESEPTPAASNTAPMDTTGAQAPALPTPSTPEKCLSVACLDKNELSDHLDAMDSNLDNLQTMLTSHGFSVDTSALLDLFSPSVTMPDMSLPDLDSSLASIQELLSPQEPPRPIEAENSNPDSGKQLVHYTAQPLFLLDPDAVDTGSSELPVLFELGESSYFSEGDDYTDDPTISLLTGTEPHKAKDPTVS

[25] = reduced cellular PGC1a acetyl-lysine signal – cell-based, cherry-picked samples, dose response (AID 720514); type: functional;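 also: potency may reflect raised or lowered acetylation signal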
[26] = target: T7, Protein RecA (Mycobacterium tuberculosis, UniProt P9WHJ3); assay: Fluorescence Cell-Free Homogeneous Dose Retest to Identify Inhibitors of RecA-Intein Splicing Activity. [Related pubchem assays (depositor defined):AID2097, AID2223, AID489010, AID492950]; type: functional
T7 sequence (P9WHJ3 whole entry): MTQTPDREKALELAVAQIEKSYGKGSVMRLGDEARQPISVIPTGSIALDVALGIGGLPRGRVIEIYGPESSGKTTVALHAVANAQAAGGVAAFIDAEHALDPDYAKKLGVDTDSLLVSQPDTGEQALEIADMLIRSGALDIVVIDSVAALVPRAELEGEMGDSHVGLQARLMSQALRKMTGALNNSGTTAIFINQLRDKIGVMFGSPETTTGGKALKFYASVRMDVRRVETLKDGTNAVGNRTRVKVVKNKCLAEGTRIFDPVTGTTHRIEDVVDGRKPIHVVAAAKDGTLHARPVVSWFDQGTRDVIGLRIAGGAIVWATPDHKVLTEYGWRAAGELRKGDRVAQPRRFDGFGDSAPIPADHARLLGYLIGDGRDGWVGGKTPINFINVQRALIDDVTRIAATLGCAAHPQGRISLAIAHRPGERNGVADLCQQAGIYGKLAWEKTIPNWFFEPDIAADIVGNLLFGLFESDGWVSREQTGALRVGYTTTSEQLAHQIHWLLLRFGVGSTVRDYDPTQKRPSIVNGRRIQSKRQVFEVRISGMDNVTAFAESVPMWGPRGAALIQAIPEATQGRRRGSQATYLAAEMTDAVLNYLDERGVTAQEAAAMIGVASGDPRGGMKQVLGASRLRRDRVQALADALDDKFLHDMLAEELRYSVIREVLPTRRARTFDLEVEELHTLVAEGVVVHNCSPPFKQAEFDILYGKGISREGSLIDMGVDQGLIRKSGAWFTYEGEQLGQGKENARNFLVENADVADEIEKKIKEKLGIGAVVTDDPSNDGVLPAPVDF

[27] = viability loss in Vero cells – cytotoxicity control for Vif-APOBEC3G degradation inhibitor project, dose response (AID 1117358); type: functional; conditions: Vero
[28] = test system: H9c2; assay: cells; type: functional, cell-based; conditions: Rattus norvegicus, H9c2, Myocardium;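 also: confirmatory concentration-response retest of ultra-high-throughput screening hits for modulation of myocardial damage; cell death induced by hydrogen peroxide oxidative stress; compound pretreatment for 60 min then peroxide exposure for 2 h; potency is for protecting the cells against peroxide damage rather than for killing them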
[29] = microbe, parasite or virus in culture; type: functional; conditions: Mycobacterium tuberculosis

Sequence of Glyceraldehyde-3-phosphate dehydrogenase (P04406 whole entry): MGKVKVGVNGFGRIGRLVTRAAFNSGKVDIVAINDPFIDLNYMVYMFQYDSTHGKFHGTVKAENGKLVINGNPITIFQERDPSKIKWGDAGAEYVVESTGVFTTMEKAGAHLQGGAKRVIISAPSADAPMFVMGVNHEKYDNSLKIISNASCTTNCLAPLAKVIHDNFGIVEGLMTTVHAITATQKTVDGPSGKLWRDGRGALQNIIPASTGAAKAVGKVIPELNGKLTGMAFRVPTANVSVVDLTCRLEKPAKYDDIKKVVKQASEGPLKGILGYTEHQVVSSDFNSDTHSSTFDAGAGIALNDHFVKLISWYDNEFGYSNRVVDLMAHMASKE
T3 sequence (Q9UBE0 whole entry): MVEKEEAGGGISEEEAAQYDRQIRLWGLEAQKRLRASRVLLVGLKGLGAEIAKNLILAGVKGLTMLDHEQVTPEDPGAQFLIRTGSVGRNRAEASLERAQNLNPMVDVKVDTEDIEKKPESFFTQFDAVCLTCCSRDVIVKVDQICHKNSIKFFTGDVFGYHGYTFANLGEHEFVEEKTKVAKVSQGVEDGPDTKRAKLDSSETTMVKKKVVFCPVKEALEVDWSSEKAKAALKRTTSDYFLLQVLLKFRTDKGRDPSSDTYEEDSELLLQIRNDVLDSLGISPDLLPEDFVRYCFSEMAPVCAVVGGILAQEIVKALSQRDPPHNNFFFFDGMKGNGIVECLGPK
T3 sequence (Q9UBT2 whole entry): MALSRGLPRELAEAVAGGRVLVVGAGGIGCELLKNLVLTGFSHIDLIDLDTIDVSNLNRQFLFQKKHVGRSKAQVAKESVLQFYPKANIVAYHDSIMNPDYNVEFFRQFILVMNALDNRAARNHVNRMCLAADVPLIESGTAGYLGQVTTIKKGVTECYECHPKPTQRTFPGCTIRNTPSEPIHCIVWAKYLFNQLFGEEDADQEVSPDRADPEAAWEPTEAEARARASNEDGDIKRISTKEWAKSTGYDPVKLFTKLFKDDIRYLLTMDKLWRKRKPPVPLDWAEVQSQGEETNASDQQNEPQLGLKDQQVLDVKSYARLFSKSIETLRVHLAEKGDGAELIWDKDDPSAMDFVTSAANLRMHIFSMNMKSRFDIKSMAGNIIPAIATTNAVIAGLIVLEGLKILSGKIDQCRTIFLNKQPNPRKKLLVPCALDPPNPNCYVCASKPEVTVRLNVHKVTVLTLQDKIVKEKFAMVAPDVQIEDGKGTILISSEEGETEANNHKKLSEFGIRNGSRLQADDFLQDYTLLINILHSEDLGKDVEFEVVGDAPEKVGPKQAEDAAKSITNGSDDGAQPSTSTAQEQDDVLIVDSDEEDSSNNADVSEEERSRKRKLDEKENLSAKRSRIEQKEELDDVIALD

## Cc1cccc(C)c1NC(=O)Cn1c(=O)n(CCCC(=O)NC2CCN(Cc3ccccc3)CC2)c(=O)c2ccccc21
[1]
  IC50: 4.06 µM (active)
[2]
  IC50: 6.42 µM (active)
[3]
  IC50: > 20 µM (inactive)

## CS(=O)(=O)N(CC(O)Cn1c2ccccc2c2ccccc21)c1ccccc1 (configuration not stated)
[4]
  IC50: 33 µM (active)

## O=C(Nc1ccccc1C(=O)O)c1ccc(NC(=O)c2ccc(Br)o2)cc1
[4]
  IC50: 35.4 µM (active)

## Cc1ccc(-c2cc(C(F)(F)F)c(C#N)c(O)n2)cc1
[4]
  IC50: 32.6 µM (active)

## COc1ccc2c3c(n(C)c2c1)[C@H](CO)N(CC1CC1)CC31CN(C(=O)c2ccc3c(c2)OCO3)C1
[5]
  AC50: 1.24 µM (active)
[6]
  AC50: > 100 µM (inactive)
[7]
  AC50: 1.26 µM (active)
[8]
  AC50: 1.85 µM (active)
[9]
  AC50: 1.28 µM (active)

## CCCCn1c(=O)[nH]c(=O)c2c1nc(-c1ccc(-c3ccc(F)cc3)o1)n2C
[10]
  IC50: > 100 µM (inactive)
[11]
  IC50: > 100 µM (inactive)

## Cc1ccc(Nc2[nH]cnc3ncnc2-3)cc1Cl
[12]
  EC50: 0.745 µM (active)
[13]
  EC50: > 12 µM (not active)
[14]
  EC50: < 0.1 µM (active)
[15]
  EC50: > 120 µM (not active)
[16]
  EC50: 0.268 µM (inconclusive)
[17]
  EC50: 0.604 µM (active)

## Cc1ccc(Cl)c(N2C(=O)C(Cl)=C(N3CCN(C)CC3)C2=O)c1Cl
[18]
  IC50: 11.1 µM (active)
[19]
  IC50: > 100 µM (not active)
[20]
  IC50: 23.9 µM (active)

## Cc1ccc(-c2cc(-c3ccc4c(c3)OCO4)c(C#N)c(N)n2)o1
[21]
  IC50: 30.5 µM (inconclusive)
[22]
  CC50: 24.7 µM (active)

## CCOC(=O)c1s/c(=N\C(=O)c2ccc(C)c(C)c2)n(C)c1C
[12]
  EC50: 0.543 µM (active)
[13]
  EC50: 0.601 µM (active)
[16]
  EC50: < 0.1 µM (active)
[17]
  EC50: 0.718 µM (active)

## O=S(=O)(c1ccccc1)c1ncc(C(F)(F)F)cc1Cl
[23]
  AC50: 18.4 µM (active)
[24]
  EC50: 15.9 µM (active)
[25]
  AC50: 11 µM (active)
[26]
  EC50: 3.16 µM (active)

## CCC(NC(=O)Nc1ccc(O)cc1)(C(F)(F)F)C(F)(F)F
[21]
  IC50: 40.2 µM (inconclusive)

## O=C(NCc1ccccc1)/C(=C/c1ccc(OC(F)F)cc1)c1ccccc1
[27]
  CC50: 34.5 µM (active)

## CCCCOc1[nH]cnc2c3cc(OC)ccc3nc1-2
[12]
  EC50: 0.274 µM (active)
[13]
  EC50: 0.403 µM (active)
[15]
  EC50: < 0.1 µM (active)
[17]
  EC50: 0.239 µM (active)

## COc1ccc2c3c([nH]c2c1)[C@H](CO)N(Cc1ccncc1)CC31CN(Cc2ccc(-c3ccccn3)cc2)C1
[5]
  AC50: 3.42 µM (active)
[6]
  AC50: 43.3 µM (active)
[7]
  AC50: 2.97 µM (active)
[8]
  AC50: 2.36 µM (active)
[9]
  AC50: 2.8 µM (active)

## c1ccc(CN2CCN(CCCNc3ccc4nnc(-c5ccccc5)n4n3)CC2)cc1
[21]
  IC50: > 100 µM (active)
[28]
  IC50: > 79 µM (inactive)
[29]
  CC50: 35.6 µM (active)

## O=C1c2cccc3cccc(c23)N1Cc1cccc(F)c1
[1]
  IC50: 6.16 µM (active)
[2]
  IC50: 16.6 µM (active)
[3]
  IC50: > 20 µM (inactive)

## COc1cccc(N2C(=O)C(Cl)=C(N3CCN(CCOCCO)CC3)C2=O)c1
[18]
  IC50: 9.11 µM (active)
[19]
  IC50: > 100 µM (not active)
[20]
  IC50: 8.85 µM (active)

From ChEMBL document CHEMBL1201862, “PubChem BioAssay data set” (2004)
